What all share (type): functional, cell-based
Test [1] concerns HCT-116. Briefly: Cytotoxicity against human HCT116 cells after 96 hrs by MTT assay. The settings on record: HCT-116, 96 h. (Tetrazolium assays rely on reduction of a dye to a coloured formazan, in cell work by metabolically active cells.)
The subject of test [2] is NCI-H460. Put plainly: Cytotoxicity against human NCI-H460 cells after 96 hrs by MTT assay. The settings on record: NCI-H460, 96 h.
Test [3] deals with BGC-823. Put plainly: Cytotoxicity against human BGC823 cells after 96 hrs by MTT assay. The settings on record: BGC-823, 96 h.
Test [4] concerns Daoy. Briefly: Cytotoxicity against human DaOY cells after 96 hrs by MTT assay.
The subject of test [5] is HepG2. Put plainly: Cytotoxicity against human HepG2 cells after 96 hrs by MTT assay. The settings on record: HepG2, 96 h.

Structures are written as SMILES.

As a reminder, the IC50 is the midpoint of a concentration-inhibition curve. Low values mean greater potency in that assay, high ones weaker potency in that assay. `CC(=O)O[C@@H]1[C@H](O)C[C@@]2(C)[C@@H](CC[C@@H](C)[C@]23Cc2c(O)cc4c(c2O3)C[C@H]2OCc3cc(O)c5c(c3[C@H](O2)[C@H]4O)O[C@]2(C5)[C@H](C)CC[C@H]3C(C)(C)[C@H](O)CC[C@@]32C)C1(C)C`: the IC50 is 18 µM in test [1]; 5.5 µM in test [2]; 6.6 µM in test [3]; 4.2 µM in test [4]; 19.3 µM in test [5].

Take `C[C@@H]1CC[C@H]2C(C)(C)[C@H](O)CC[C@]2(C)[C@@]12Cc1c(O)cc3c(c1O2)[C@@H]1O[C@@H](Cc2c(cc(O)c4c2O[C@]2(C4)[C@H](C)CC[C@H]4C(C)(C)[C@H](O)[C@H](O)C[C@@]42C)[C@@H]1O)OC3`: the IC50 in test [1] came out at 6.7 µM; in test [2], 7.5 µM; in test [3], 14.2 µM; in test [4] it was 2.8 µM; in test [5] it was 11.9 µM.

For `C[C@@H]1CC[C@H]2C(C)(C)[C@H](O)[C@H](O)C[C@]2(C)[C@@]12Cc1c(O)cc3c(c1O2)C[C@H]1OCc2cc(O)c4c(c2[C@H](O1)[C@H]3O)O[C@]1(C4)[C@H](C)CC[C@H]2C(C)(C)[C@H](O)[C@H](O)C[C@@]21C`, the IC50 stood at 19.1 µM in test [1]; 12.3 µM in test [2]; 19.2 µM in test [3]; 14.6 µM in test [4]; 19.3 µM in test [5].

Regarding `CC(=O)O[C@H]1C(=O)[C@@]2(C)[C@H]([C@H](OC(=O)c3ccccc3)[C@]3(O)C[C@H](OC(=O)[C@H](O)[C@@H](NC(=O)c4ccccc4)c4ccccc4)C(C)=C1C3(C)C)[C@]1(OC(C)=O)CO[C@@H]1C[C@@H]2O` [PACLITAXEL], the IC50 in test [1] stood at 0.038 µM; in test [2] it was 0.004 µM; in test [3] it was 0.002 µM; in test [4], 0.002 µM; in test [5], 0.0102 µM.
